# Test results reported in publication PMC6154005, “From Cell to Beak: In-Vitro and In-Vivo Characterization of Chicken Bitter Taste Thresholds” (Molecules : A Journal of Synthetic Chemistry and Natural …, 2017).
# Structures can show the parent of a compound that is named as a salt.
# Assays:
# Experiment in all cases: calcium imaging (Fluo4-AM, FLIPR) in transfected cells
# Assay type in all cases: cell-based
# Conditions in all cases: agonist; HEK 293T-Galpha16gust44 cells; 2.5 mM probenecid at dye loading; lowest activating concentration, no EC50
# ggTas2r7 = biological target: T1, ggTas2r7 (Gallus gallus, UniProt Q2AB81)
# T1 construct: gene TAS2R7; cDNA in pcDNA5FRT, transiently expressed in HEK 293T-Galpha16gust44 cells
# T1 sequence (Q2AB81 1-321): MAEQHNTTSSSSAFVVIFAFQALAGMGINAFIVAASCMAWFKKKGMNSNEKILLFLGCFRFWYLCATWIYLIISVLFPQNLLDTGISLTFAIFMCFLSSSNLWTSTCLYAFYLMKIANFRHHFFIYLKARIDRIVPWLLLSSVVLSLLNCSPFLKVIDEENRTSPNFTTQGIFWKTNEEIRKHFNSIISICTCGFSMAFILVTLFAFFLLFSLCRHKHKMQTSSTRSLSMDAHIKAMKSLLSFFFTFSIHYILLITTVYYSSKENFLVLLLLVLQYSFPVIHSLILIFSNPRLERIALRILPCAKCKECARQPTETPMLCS
# ggTas2r2 = biological target: T2, ggTas2r2 (Gallus gallus, UniProt A0A1D5PXM6)
# T2 construct: gene LOC101747503; cDNA in pcDNA5FRT, transiently expressed in HEK 293T-Galpha16gust44 cells
# T2 sequence (A0A1D5PXM6 1-311): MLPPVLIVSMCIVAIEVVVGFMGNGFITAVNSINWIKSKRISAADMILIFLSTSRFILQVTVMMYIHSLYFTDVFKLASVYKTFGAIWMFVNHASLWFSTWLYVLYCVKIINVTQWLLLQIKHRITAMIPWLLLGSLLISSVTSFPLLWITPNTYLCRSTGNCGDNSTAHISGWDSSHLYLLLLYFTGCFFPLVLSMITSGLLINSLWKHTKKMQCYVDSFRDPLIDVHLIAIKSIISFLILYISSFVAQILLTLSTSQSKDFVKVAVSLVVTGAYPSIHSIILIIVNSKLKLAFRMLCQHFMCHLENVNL
# ggTas2r1 = biological target: T3, ggTas2r1 (Gallus gallus, UniProt Q2AB83)
# T3 construct: gene TAS2R40; cDNA in pcDNA5FRT, transiently expressed in HEK 293T-Galpha16gust44 cells
# T3 sequence (Q2AB83 1-311): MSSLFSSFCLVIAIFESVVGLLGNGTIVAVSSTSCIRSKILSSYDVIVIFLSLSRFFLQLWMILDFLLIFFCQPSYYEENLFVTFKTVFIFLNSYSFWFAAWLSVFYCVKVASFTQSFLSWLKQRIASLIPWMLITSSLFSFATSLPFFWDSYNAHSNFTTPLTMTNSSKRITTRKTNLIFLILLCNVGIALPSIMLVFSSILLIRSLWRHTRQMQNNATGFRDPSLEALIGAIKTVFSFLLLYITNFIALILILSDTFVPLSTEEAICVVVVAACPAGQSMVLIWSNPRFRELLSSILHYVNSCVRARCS
SMILES,Threshold Concentrations (mM) / In-Vitro (ggTas2r7),Threshold Concentrations (mM) / In-Vitro (ggTas2r2),Threshold Concentrations (mM) / In-Vitro (ggTas2r1)
Oc1cc(O)c2c(c1)O[C@H](c1ccc(O)c(O)c1)[C@@H](O)C2 [(+)-catechin],0.3 mM,–,–
C=C[C@H]1CN2CC[C@H]1C[C@H]2[C@H](O)c1ccnc2ccc(OC)cc12 [quinine hydrochloride],0.01 mM,0.01 mM,0.01 mM
